Results taken from patent US20240024273A1, “TOPICAL ADMINISTRATION OF 2-(DIETHYLAMINO)ETHYL 2-(4-ISOBUTYLPHENYL)PROPRIONATE FOR TREATMENT OF DISEASES” (TECHFIELDS PHARMA CO., LTD., priority 2020, published 2024).
Like-named read-outs stand apart in the source and are kept apart here.

How the values were obtained:
Sprague Dawley rats = assay: Behavioral effects, functional observational battery; type: in vivo; details: single dermal dose 50, 250, 750 mg/kg
[1] = system: healthy male and female volunteers; assay: Phase 1 clinical study: skin irritation assessment (dermal response score 0-7); type: in vivo, human; details: all dose groups
Procedure: Skin irritation due to study drug application was measured by a dermal response score of 0-7 assigned for each study drug application site prior to and 30 min following each dose administration. A score of 6 or 7 was considered a severe reaction. Pre-dose assessments during the multiple dosing served as the 12 hour post-dose assessment of the prior dose.

[2] = 28-day GLP repeated dermal dose toxicity and toxicokinetics study; set-up: species or system Beagle dogs; details: beagle, dog, in vivo, topical or ocular, 28-day dermal
[3] = Acute maximum tolerated dose study, subcutaneous injection; set-up: species or system Beagle dogs; details: beagle, dog, in vivo, sc
[4] = Second Phase 2 study: plasma ibuprofen pharmacokinetics; type: in vivo, human; details: low dose levels (below 35 mg/day)
Procedure: All subjects enrolled at designated sites that have the capability to keep subjects overnight will be included in the PK subgroup until PK samples for 40 subjects per treatment group have been collected. […] At the Week 12/EOS visit, PK blood samples can be collected predose and at 2, 4, and 6 hours postdose. Subjects will only receive the morning dose at the Week 12/EOS visit.
Thus only ibuprofen was analyzed in this trial.

[5] = system: Adjuvant-induced arthritis; assay: Adjuvant-induced arthritis; type: in vivo, Lewis rats; details: 10, 30 and 90 mg/kg daily, topical
[6] = In vitro half-life in plasma; type: in vitro ADME
LPS induced fever = LPS induced fever model; type: in vivo, SD Rats; details: 30 and 90 mg/kg; 4 and 6 hour time points

SMILES: CCN(CC)CCOC(=O)C(C)c1ccc(CC(C)C)cc1 (stereo not shown) [2-(diethylamino)ethyl 2-(4-isobutylphenyl)propionate]
- neurobehavioral changes (FOB test) (Sprague Dawley rats): 250, and 750 mg/kg of ibuprofenamine were not associated with any
- maximum skin irritation score (0-7) [1]: ≤ 3
- NOAEL at 28 days ([2]; read-out: NOAEL (not attained; ulcers at application site at lowest dose)): < 12.4 mg/kg/day
- NOAEL at 28 days ([2]; read-out: systemic NOAEL (tissues other than the dermal application site)): 24.8 mg/kg/day
- MTD [3]: 500 mg/kg
- detectability of prodrug in plasma [4]: cannot be detected in most of subjects' plasma
- arthritis [5]: significantly inhibited arthritis.
- fraction metabolized to ibuprofen in any human tissue (except skin) [6]: > 99.9%
- half-life ([6]; in plasma, read-out: in vitro T1/2): ~4 min
- LPS induced fever (LPS induced fever): LPS induced fever was attenuated by middle (30 mg/kg) and high
